ChEMBL document CHEMBL3885861, “Open TG-GATES”

Species on record: Rattus norvegicus
Test: Open TG-GATES - Regimen: Daily Repeat
Format: toxicity, organism-based, Sprague-Dawley
Parameters: regimen Daily Repeat, gender Male, age 6 weeks
Details: in vivo, iv, 1 mg/kg, route intravenous injection, dose level High; for APTT / Bas / Eos / Fbg / Hb / Ht / Lym / MCH / MCHC / MCV / Mono / Neu / PT / Plat / RBC / Ret / WBC: tissue Blood; for KIDNEY_L / KIDNEY_R / KIDNEY_TOTAL: tissue Kidney; for LIVER: tissue Liver; for A/G / ALP / ALT / AST / BUN / CRE / Ca / Cl / DBIL / GLC / IP / K / LDH / Na / PL / RALB / TBIL / TC / TG / TP / gamma-GTP: tissue Plasma

SMILES: C[C@@H]1[C@H](O)[C@@H](C)/C=C/C=C/C=C/C=C/C=C/C=C/C=C/[C@H](O[C@@H]2O[C@H](C)[C@@H](O)[C@H](N)[C@@H]2O)C[C@@H]2O[C@](O)(C[C@@H](O)C[C@@H](O)[C@H](O)CC[C@@H](O)C[C@@H](O)CC(=O)O[C@H]1C)C[C@H](O)[C@H]2C(=O)O [AMPHOTERICIN B]
- TERMINAL_BW (72 h, time 3 day): 235.4 g
- APTT (72 h, time 3 day): 15.8 s
- Bas (72 h, time 3 day): 0%
- Eos (72 h, time 3 day): 0.8%
- Fbg (72 h, time 3 day): 303.4 mg/dL
- Hb (72 h, time 3 day): 13.7 g/dL
- Ht (72 h, time 3 day): 39.2%
- Lym (72 h, time 3 day): 80.8%
- MCH (72 h, time 3 day): 21.3 pg
- MCHC (72 h, time 3 day): 34.8%
- MCV (72 h, time 3 day): 61.1 fL
- Mono (72 h, time 3 day): 2.2%
- Neu (72 h, time 3 day): 15.2%
- PT (72 h, time 3 day): 12.3 s
- Plat (72 h, time 3 day): 136.2 x10_4/uL
- RBC (72 h, time 3 day): 643 x10_4/ul
- Ret (72 h, time 3 day): 4.2%
- WBC (72 h, time 3 day): 106.4 x10_2/uL
- KIDNEY_L (72 h, time 3 day): 1 g
- KIDNEY_R (72 h, time 3 day): 1 g
- KIDNEY_TOTAL (72 h, time 3 day): 2 g
- LIVER (72 h, time 3 day): 10.7 g
- A/G (72 h, time 3 day): 0.8
- ALP (72 h, time 3 day): 1621.8 IU/L
- ALT (72 h, time 3 day): 32 IU/L
- AST (72 h, time 3 day): 61.2 IU/L
- BUN (72 h, time 3 day): 22.6 mg/dL
- CRE (72 h, time 3 day): 0.2 mg/dL
- Ca (72 h, time 3 day): 10.9 mg/dL
- Cl (72 h, time 3 day): 106.4 meq/L
- DBIL (72 h, time 3 day): 0.018 mg/dL
- GLC (72 h, time 3 day): 174.6 mg/dL
- IP (72 h, time 3 day): 7.1 mg/dL
- K (72 h, time 3 day): 4.1 meq/L
- LDH (72 h, time 3 day): 51.8 IU/L
- Na (72 h, time 3 day): 143 meq/L
- PL (72 h, time 3 day): 147 mg/dL
- RALB (72 h, time 3 day): 2.6 g/dL
- TBIL (72 h, time 3 day): 0.05 mg/dL
- TC (72 h, time 3 day): 85 mg/dL
- TG (72 h, time 3 day): 94.8 mg/dL
- TP (72 h, time 3 day): 5.9 g/dL
- gamma-GTP (72 h, time 3 day): 1.8 IU/L
- TERMINAL_BW ([…], time 7 day): 266.4 g
- TERMINAL_BW ([…], time 14 day): 304.7 g
- TERMINAL_BW ([…], time 28 day): 371.1 g
- APTT ([…], time 7 day): 17.2 s
- Bas ([…], time 7 day): 0%
- Eos ([…], time 7 day): 1%
- Fbg ([…], time 7 day): 287 mg/dL
- Hb ([…], time 7 day): 13.6 g/dL
- Ht ([…], time 7 day): 39%
- Lym ([…], time 7 day): 78%
- MCH ([…], time 7 day): 20.5 pg
- MCHC ([…], time 7 day): 34.9%
- MCV ([…], time 7 day): 58.6 fL
- Mono ([…], time 7 day): 2.2%
- Neu ([…], time 7 day): 18.6%
- PT ([…], time 7 day): 11.9 s
- Plat ([…], time 7 day): 141.2 x10_4/uL
- RBC ([…], time 7 day): 665.8 x10_4/ul
- Ret ([…], time 7 day): 4.7%
- WBC ([…], time 7 day): 126.3 x10_2/uL
- APTT ([…], time 14 day): 16.6 s
- Bas ([…], time 14 day): 0.4%
- Eos ([…], time 14 day): 0.8%
- Fbg ([…], time 14 day): 281.6 mg/dL
- Hb ([…], time 14 day): 14.4 g/dL
- Ht ([…], time 14 day): 40.7%
- Lym ([…], time 14 day): 82.8%
- MCH ([…], time 14 day): 20.3 pg
- MCHC ([…], time 14 day): 35.4%
- MCV ([…], time 14 day): 57.2 fL
- Mono ([…], time 14 day): 1.6%
- Neu ([…], time 14 day): 14.2%
- PT ([…], time 14 day): 12.5 s
- Plat ([…], time 14 day): 122.8 x10_4/uL
- RBC ([…], time 14 day): 711.2 x10_4/ul
- Ret ([…], time 14 day): 4.1%
- WBC ([…], time 14 day): 116.3 x10_2/uL
- APTT ([…], time 28 day): 19.3 s
- Bas ([…], time 28 day): 1%
- Eos ([…], time 28 day): 1%
- Fbg ([…], time 28 day): 322.5 mg/dL
- Hb ([…], time 28 day): 15.1 g/dL
- Ht ([…], time 28 day): 42.9%
- Lym ([…], time 28 day): 80.8%
- MCH ([…], time 28 day): 18.9 pg
- MCHC ([…], time 28 day): 35.2%
- MCV ([…], time 28 day): 53.8 fL
- Mono ([…], time 28 day): 2.2%
- Neu ([…], time 28 day): 14.5%
- PT ([…], time 28 day): 12.9 s
- Plat ([…], time 28 day): 127.8 x10_4/uL
- RBC ([…], time 28 day): 798.8 x10_4/ul
- Ret ([…], time 28 day): 2.8%
- WBC ([…], time 28 day): 135.7 x10_2/uL
- KIDNEY_L ([…], time 7 day): 1.2 g
- KIDNEY_R ([…], time 7 day): 1.1 g
- KIDNEY_TOTAL ([…], time 7 day): 2.3 g
- KIDNEY_L ([…], time 14 day): 1.2 g
- KIDNEY_R ([…], time 14 day): 1.2 g
- KIDNEY_TOTAL ([…], time 14 day): 2.5 g
- KIDNEY_L ([…], time 28 day): 1.4 g
- KIDNEY_R ([…], time 28 day): 1.3 g
- KIDNEY_TOTAL ([…], time 28 day): 2.7 g
- LIVER ([…], time 7 day): 12.5 g
- LIVER ([…], time 14 day): 12.9 g
- LIVER ([…], time 28 day): 14.4 g
- A/G ([…], time 7 day): 0.8
- ALP ([…], time 7 day): 1417.8 IU/L
- ALT ([…], time 7 day): 29.8 IU/L
- AST ([…], time 7 day): 57.2 IU/L
- BUN ([…], time 7 day): 22.4 mg/dL
- CRE ([…], time 7 day): 0.2 mg/dL
- Ca ([…], time 7 day): 11.2 mg/dL
- Cl ([…], time 7 day): 105.2 meq/L
- DBIL ([…], time 7 day): 0.018 mg/dL
- GLC ([…], time 7 day): 177.8 mg/dL
- IP ([…], time 7 day): 6.7 mg/dL
- K ([…], time 7 day): 4.4 meq/L
- LDH ([…], time 7 day): 57.4 IU/L
- Na ([…], time 7 day): 143.2 meq/L
- PL ([…], time 7 day): 145.6 mg/dL
- RALB ([…], time 7 day): 2.6 g/dL
- TBIL ([…], time 7 day): 0.044 mg/dL
- TC ([…], time 7 day): 77 mg/dL
- TG ([…], time 7 day): 138.6 mg/dL
- TP ([…], time 7 day): 6 g/dL
- gamma-GTP ([…], time 7 day): 1.2 IU/L
- A/G ([…], time 14 day): 0.8
- ALP ([…], time 14 day): 1437.6 IU/L
- ALT ([…], time 14 day): 31.6 IU/L
- AST ([…], time 14 day): 63 IU/L
- BUN ([…], time 14 day): 27.2 mg/dL
- CRE ([…], time 14 day): 0.2 mg/dL
- Ca ([…], time 14 day): 10.8 mg/dL
- Cl ([…], time 14 day): 105 meq/L
- DBIL ([…], time 14 day): 0.016 mg/dL
- GLC ([…], time 14 day): 183.2 mg/dL
- IP ([…], time 14 day): 6.7 mg/dL
- K ([…], time 14 day): 4.6 meq/L
- LDH ([…], time 14 day): 54 IU/L
- Na ([…], time 14 day): 142.8 meq/L
- PL ([…], time 14 day): 149.8 mg/dL
- RALB ([…], time 14 day): 2.6 g/dL
- TBIL ([…], time 14 day): 0.048 mg/dL
- TC ([…], time 14 day): 75.6 mg/dL
- TG ([…], time 14 day): 132.8 mg/dL
- TP ([…], time 14 day): 6 g/dL
- gamma-GTP ([…], time 14 day): 1 IU/L
- A/G ([…], time 28 day): 0.6
- ALP ([…], time 28 day): 1068.2 IU/L
- ALT ([…], time 28 day): 30.2 IU/L
- AST ([…], time 28 day): 60.2 IU/L
- BUN ([…], time 28 day): 26.8 mg/dL
- CRE ([…], time 28 day): 0.2 mg/dL
- Ca ([…], time 28 day): 10.9 mg/dL
- Cl ([…], time 28 day): 106 meq/L
- DBIL ([…], time 28 day): 0.0175 mg/dL
- GLC ([…], time 28 day): 178 mg/dL
- IP ([…], time 28 day): 6.1 mg/dL
- K ([…], time 28 day): 4 meq/L
- LDH ([…], time 28 day): 52.8 IU/L
- Na ([…], time 28 day): 145.2 meq/L
- PL ([…], time 28 day): 128.8 mg/dL
- RALB ([…], time 28 day): 2.6 g/dL
- TBIL ([…], time 28 day): 0.06 mg/dL
- TC ([…], time 28 day): 63.2 mg/dL
- TG ([…], time 28 day): 105 mg/dL
- TP ([…], time 28 day): 6.4 g/dL
- gamma-GTP ([…], time 28 day): 1.2 IU/L
